Laboratory results from patent US8053415B2, “Compounds having RD targeting motifs” (Washington University in St. Louis, priority 2005, dated 2011).
Where a SMILES comes first, the peptide text is derived from it.

What was measured:
[1] = tested on: A549 and A427 cells; assay: Cellular internalization of cyclic cypate-RGD conjugates (Example 2); type: cell-based; conditions: 1 μM, 1 h, 37° C.
Protocol: A549 and A427 cells were purchased from ATCC and grown in […] tissue culture flasks or on Lab-Tek chambered slides in Ham's F12K medium with 2 mM L-glutamine supplemented with 1.5 g/L sodium bicarbonate, 10% fetal calf serum, 100 units/ml penicillin and 100 units/mL streptomycin.
Cells were grown to confluence on LabTek microscope slides. After washing with PBS, the cells were incubated with 1 μM of the target compounds for 1 h at 37° C. The medium was removed and the cells washed with PBS. The slides were mounted with anti-fading mounting medium. Cells were visualized with an Olympus microscope system (FV 1000) using 755 excitation and 845 nm emission filters.

[2] = tested on: A549 tumor; assay: In vivo fluorescence optical imaging and ex vivo organ distribution in A549 tumor-bearing nude mice; conditions: for blocking of Cyp-GRD uptake in the tumor by co-injection: equimolar, 0.3 μmol/kg body weight
Protocol: All in vivo studies were performed in compliance with the Washington University in St Louis Animal Study Committee's requirements for the care and use of laboratory animals in research. Nude mice (18-22 g) were anesthetized with xylazine/ketamine cocktail via intraperitoneal injection and placed in a supine position. The mice were injected subcutaneously with A549 cells (1×10^6) in the lower back of the mice. Tumor masses were palpable at 5-7 days post implant, which reached 5 mm in 10-15 days. Prior to injection of the probe, the mice were anesthetized as described above. A 29-gauge needle was used to inject the probes into the mouse via the lateral tail vein. The molecular probe (100 μL) was injected via the lateral tail vein at 0.3 μmol per kg of body weight. […] [SEQ ID NO:1] were constituted in a vial, and doses of 0.3 μmol per kg of body weight were injected into the A549 tumor-bearing mice.
A non-invasive in vivo continuous wave fluorescence imaging apparatus was used to visualize the distribution and preferential tissue uptake of the cypate-peptide molecular beacons in the nude mice (Achilefu (2004) Technol. Cancer Res. Treat. 3:393-409, incorporated herein by reference). Light from two laser diodes of nominal wavelength 780 nm and nominal power of 50 mW was launched into a fiber optic bundle. Two laser diodes were used to produce as much uniform illumination of the whole animal or organ parts as possible. The nominal 50 mW of incident power was reduced to about 44 mW at the output of the fiber optic bundle. A de-focusing lens in position after the bundle expanded the beam such that nearly the whole animal was illuminated. A Photometrics CCD camera (16 bit, 1024×1024 pixel, back illuminated, thermoelectric Peltier cooled with forced air) was used to capture the emitted photons. An interference filter (830 nm) was mounted in front of the CCD camera input lens such that only emitted fluorescent light from the contrast agent was imaged. Real-time acquisition, display and data processing software (WinView/32) was used to obtain the optical image. The samples were dissolved in 20% aqueous DMSO and animals were injected with doses of 0.3 μmol/kg body weight via the lateral tail vein. Injected volumes were 100 μL for each mouse. Data analysis consisted of subtracting (pixel by pixel) the pre-injection image from the post injection images, and displaying the false color results. Integration of the relative fluorescence intensities of tumor vs. surrounding tissues indicated the extent of selective uptake of the contrast agent. At the completion of the study, the mice were euthanized and some organ parts were excised and rinsed with water. The tissues were placed under the CCD camera and the fluorescence emission from each organ was measured after excitation with the 780 nm laser sources. Tissue parts, instead of whole organs, were used to minimize problems associated with depth-dependent non-linear fluorescence emission. A statistical program in the WinView package was used to estimate the mean fluorescence intensity per organ part.
In vivo optical imaging studies using the cypate-peptide optical probes were performed and analyzed as described above in Example 1. […]

[3] = tested on: A549 cells; assay: Cell uptake, internalization and blocking of cypate-peptide conjugates (Example 3); type: cell-based, human
Protocol: The ABI-positive cells were incubated with cypate or cypate-peptide conjugates at 37° C. for different time points. A549 cells were grown as detailed above. The human glioblastoma cell line, U87, and the human embryonic kidney cell line, HEK, were purchased from ATTC. U87 and HEK cells were maintained in minimum essential medium (MEM) with 2 mM L-glutamine and Earle's BSS adjusted to contain 1.5 g/L sodium bicarbonate, 0.1 mM nonessential amino acids, and 1.0 mM sodium pyruvate, with 10% fetal calf serum, 100 units/mL penicillin, and 100 units/mL streptomycin. Cells were grown on Lab-Tek slides. The medium was replaced and cells were incubated for various times up to 4 h at 37° C. in the presence of 1 μM of the dye conjugated peptides. For fluorescence microscopy, cells were visualized with an Olympus BX61W1 microscope using 775/50 excitation, 845/55 emission. For subcellular localization studies, 25 nM mitotracker green or 50 nM lysotracker red from Molecular Probes (Eugene, Oreg.) was added during the last 15 min or 60 min of incubation, respectively. […] Relative fluorescence was determined for five different areas of each experimental condition using the Slidebook software, and the results were averaged. The average relative fluorescence for each condition was normalized to cells treated with Cyp-GRD peptide.

[4] = molecular target: T1, purified human αvβ3 integrin protein (Homo sapiens, UniProt P05106+P06756); assay: Competitive αvβ3 integrin receptor binding assay with 125I-echistatin tracer (Example 2); conditions: Table 3, read-out: IC50
T1 construct: purchased Chemicon International, Inc. (Temecula, Calif.)
Protocol: The binding affinities were measured based on the competitive binding between purified αvβ3 integrin (ABI) and peptide ligands. Echistatin is a polypeptide that binds irreversibly with high affinity and specificity to ABI. ^125I-echistatin was used as a tracer in ABI binding assays.
Receptor binding assays were performed by using purified human αvβ3 integrin protein from Chemicon International, Inc. (Temecula, Calif.). Assays were carried out using the Millipore Duropore membrane 96-well plates and the Millipore MultiScreen system (Bedford, Mass.). The 96-well membrane plate was blocked with 0.1% Polythylenimine blocking solution overnight at 4° C. ^125I-echistatin (50 nmol/L) was added to the binding buffer (50 mM Tris-HCl, pH 7.4, 100 mM NaCl, 2 mM CaCl2, 1 mM MgCl2, 1 mM MnCl2, 1% BSA) containing integrin protein (50 ng per well in 96-well membrane plate) and ligands in a total volume of 200 μL per well. The concentration range of ligand was between 0.01 μM and 100 μM. The mixtures were incubated for 2 h at room temperature, the ABI was then filtered by centrifugation at 1500 g and washed three times with 0.20 mL of ice-cold binding buffer. The filters containing radioactivity bound ABI were removed using a punch apparatus and counted using a Packard Cobra II Auto-gamma counter (Meriden, Conn.). […] Radiolabeling of ^125I-echistatin (Amersham Biosciences, Piscataway, N.J.) was carried out in a mixture of 0.25% BSA, 5.0% lactose, 0.21% citric acid and aprotinin (0.9 TIU/ml).

[5] = Absorption and emission spectral properties in 20% aqueous DMSO; type: physicochemical
Protocol: The spectral properties of cypate and the cypate-peptide conjugates were determined in 20% aqueous DMSO, which solubilizes all the compounds. […] Absorbance measurements were performed with a Beckman Coulter DU 640 spectrophotometer. The fluorescence spectra were recorded on Fluorolog-3 fluorometer (HORIBA Jobin Yvon Inc., Edison, N.J.). To prepare the stock solutions, a high precision analytical balance was used to weigh >2 mg of each compound, which was dissolved in DMSO. The DMSO solutions were then diluted with water to obtain a final solution of 20% aqueous DMSO. An aliquot (known volume) of the solution was transferred to a cuvette with 1 μL precision micropipettes and diluted with 20% aqueous DMSO solvent mixture to give a working solution that absorbs at <1.0 absorbance unit. Aliquots of the working solution were diluted with 20% aqueous DMSO and used to determine the molar absorptivity of each compound. For fluorescence measurements, probe solutions with 0.1 absorbance units were used to minimize inner filter effects.
Previous studies have shown that this solvent mixture boosts fluorescence intensity and is well tolerated by rodents. Additionally, the dyes and their peptide conjugates are soluble in this solvent mixture, providing a common medium for spectral measurements.
Absorbance spectra were measured on a Beckman Coulter DU 640 UV-Visible spectrophotometer. Fluorescence spectra were recorded on a HORIBA Jobin Yvon Fluorolog-3 fluorometer. Stock solutions (1.0 mM) of the conjugates were prepared by dissolving each sample in 80% aqueous DMSO. UV-Vis and fluorescence measurements were carried out by adding 5.0 μL of the stock solutions via a micropipette into 3 mL of 20% aqueous DMSO in a quartz cuvette.

[6] = tested on: A549 cells; assay: CyQuant cytotoxicity and proliferation assay; type: cell-based, human; conditions: 48 hours
Protocol: Cells were seeded at 2.5×10^4 cells/well and grown in 96 well plates in the presence of 0−1.5×10^−5 M cypate conjugated peptides for 24 or 48 hours. Cell proliferation was measured using the CyQuant proliferation assay from Molecular Probes (Eugene, Oreg.) per the manufacturer's protocol. Briefly, after incubation the microplate was inverted to remove the media and frozen at −70° C. overnight. The microplate was thawed at room temperature and 200 μL of the CyQuant GR dye/cell-lysis buffer was added to each well. […]
Because the Cyquant assay is based on the adherence of a dye to nucleic acids, the assay is a measure of both proliferative and cytotoxic effects.

CC(C)C[C@@H]1NC(=O)[C@H](CC(=O)O)NC(=O)CNC(=O)[C@H](CCCNC(=N)N)NC(=O)[C@@H](NC(=O)CCN2C(=CC=CC=CC=CC3=[N+](CCC(=O)O)c4ccc5ccccc5c4C3(C)C)C(C)(C)c3c2ccc2ccccc32)CSSC[C@@H](C(N)=O)NC1=O [Cypate-cyclo(CRGDLC)-NH2] (HELM PEPTIDE1{[CC1(C)C(/C=C/C=C/C=C/C=C2/N(CCC(=O)[*:2])c3ccc4ccccc4c3C2(C)C)=[N+](CCC(=O)O)c2ccc3ccccc3c21].C.R.G.D.L.C.[am]}$PEPTIDE1,PEPTIDE1,2:R3-7:R3$$$V2.0)
cellular internalization [1]: internalized by the cells much better than some of the other compounds

CC(C)[C@@H]1NC(=O)[C@@H](Cc2ccccc2)NC(=O)[C@H](CC(=O)O)NC(=O)CNC(=O)[C@H](CCCNC(=N)N)NC1=O [cyclo[RGDfV], reference compound]
displacement of cypate-GRD from A549 tumor ([2]; blocking peptide given 24 h postinjection of cypate-GRD): unable to displace
blocking of Cyp-GRD uptake in the tumor by co-injection ([2]; 24 h post injection): blocked the uptake
blocking of Cyp-GRD uptake in the tumor by co-injection ([2]; 24 h post injection, listed as cyclo(RGDfV)): significantly blocked
blocking of cypate-GRD uptake / internalization in A549 cells ([3]; pretreatment 15 min at 37° C., antibodies 10 μg/ml): blocked the uptake

CC1(C)C(/C=C/C=C/C=C/C=C2/N(CCC(=O)NCC(=O)N[C@@H](CCCNC(=N)N)C(=O)NCC(=O)N[C@@H](CC(=O)O)C(=O)N[C@@H](CO)C(=O)N3CCC[C@H]3C(=O)N[C@@H](CCCCN)C(=O)O)c3ccc4ccccc4c3C2(C)C)=[N+](CCC(=O)O)c2ccc3ccccc3c21 [Cyp-RGD, Cypate-GRGDSPK]
uptake / retention in A549 tumor ([2]; 0.3 μmol per kg via lateral tail vein, fluorescence imaging): preferentially localized
accumulation / retention in nontarget tissues ([2]; 24 h post injection): primarily retained in the liver and the kidneys
tumor uptake compared among the cypate-peptide conjugates ([2]; 24 h post injection): low
IC50 [4]: 328 nM
^abεmax [5]: 213,726 cm^−1Mol^−1
^abλmax [5]: 789 nm
^emλmax [5]: 811 nm
internalization / fluorescence intensity in cells ([3]; 1 μM, 4 h, 37° C.): higher intensity than the linear GRD compound
cytotoxicity (CyQuant), longer treatment [6]: some cytotoxicity
